This data set in a line: Toxicity in iv dosed mouse. It is filed as organism-based. The conditions noted are these: in vivo.

As a reminder, the LD50 is the dose at which mortality reaches 50%. Read a high LD50 as lower toxicity.

`CCC(C)c1cc2c(Cl)c3c(c(O)c2c(=O)n1N)-c1c(O)c2c(c4c1[C@@H](C3)OCO4)O[C@H]1[C@@H](C2=O)[C@@H](O)C=C[C@H]1OC` (stereo partly specified) came in with an LD50 of 1 mg/kg.

The values are drawn from ChEMBL document CHEMBL1146412, “Sch 54445: a new polycyclic xanthone with highly potent antifungal activity produced by Actinoplanes sp” (J Nat Prod, 1997).
